How the values were obtained:
[1] = biological target: T1, Pi3K β (Homo sapiens, UniProt P42338); assay: Fluorescent (HTRF) determination of PI3 kinase enzyme activity, beta isoform; assay type: biochemical; settings: Table 1, HTRF
T1 construct: purchased Millipore (assay kit)
Description: Phosphoinositide 3 kinases (PI3K) belong to a class of lipid kinases that play a critical role in the regulation of several key cellular processes. The PI3K are capable of phosphorylating the 3-hydroxy position of phosphoinositols thereby generating second messengers involved in downstream signalling events. The homogenous time resolved fluorescence (HTRF) assay allows detection of 3,4,5-triphosphate (PIP3) formed as a result of phosphorylation of phosphotidylinositol 4,5-biphosphate (PIP2) by PI3K isoforms such as α, β, γ or δ.
PI3K isoform activity for α, β, γ or δ was determined using a PI3K human HTRF™ Assay Kit (Millipore, Billerica, Mass.) with modifications. All incubations were carried out at room temperature. Briefly, 0.5 μl of 40× inhibitor (in 100% DMSO) or 100% DMSO were added to each well of a 384-well white plate (Greiner Bio-One, Monroe, N.C.) containing 14.5 μl 1× reaction buffer /PIP2 (10 mM MgCl2, 5 mM DTT, 1.38 μM PIP2) mix with or without enzyme, followed by 5 μl/well of 400 μM ATP and incubated for an additional 30 minutes. Reaction was terminated by adding 5 μl/well stop solution (Millipore, Billerica, Mass.). […] HRTF ratio was measured on a microplate reader (BMG Labtech., Germany) at an excitation wavelength of 337 nm and emission wavelengths of 665 and 615 nm with an integration time of 400 msec counting delay of 50 msec.

[2] = tested on: pAKT; assay: Inhibition of AKT phosphorylation in leukemic cell lines (Western blot); assay type: cell-based; settings: MOLT-4, Jurkat, CCRF-CEM, Hut-78 & HuT-102; 48 h; read-out: EC50, reduction in pAKT expression
Description: MOLT-4, Jurkat, CCRF-CEM, Hut-78, HuT-102, Sez4 and HH cells were incubated with desired concentrations of compound for 48 h. Cells were lysed and pAKT determined by Western Blotting. Bands were quantified using ImageJ and normalized to actin.

[3] = biological target: T2, PI3K delta (Homo sapiens, UniProt O00329); assay: Anti-IgM induced B-cell proliferation (PI3Kδ selectivity); assay type: cell-based; settings: read-out: Cellular IC50 PI3K delta (anti-IgM induced human B-cell proliferation)
T2 construct: Isolated B-cells were re-suspended to 1.0×10^6 cells per ml; endogenous in cells; host or cells: isolated human B cells
Description: The objective of this study was to assess the inhibitory potential of Compound A1 on anti-IgM induced human B-cell proliferation.
• Isolated B-cells were re-suspended to 1.0×10^6 cells per ml. 100 μl of cell suspension was added to each well of a 96-well plate. Triplicates were maintained. • 50 μl of drug dilution was added and mixed well. A DMSO blank and inducer blank were maintained. • Treated plate was incubated for 30 min at 37° C., 5% CO2 and then 50 μl of 4× inducer was added and mixed by pipetting. • Plate was incubated at 37° C., 5% CO2 for 72 h. • Media was aspirated and 150 μl of DMSO was added to dissolve the formazan crystals. • Absorbance was read at A560 and A640 nm.

[4] = tested on: TNF-α; assay: Lipopolysaccharide induced TNF-α production; assay type: in vivo, rat
Description: Fasted female wistar rats were randomized into different groups depending on their body weights. Test compound (Compound A1) was prepared as a suspension in a vehicle consisting of 0.5% methylcellulose. The compound or vehicle was administered by oral gavage in a volume of 10 mL/kg. LPS solution was administered intraperitoneally one hour after compound administration at a dose of 0.3 mg/kg. Blood was collected in serum separator tubes via cardiac puncture ninety minutes after LPS injection. Serum was separated and stored at −20° C. and will be analysed for TNFα by ELISA.

[5] = tested on: ovalbumin sensitized mice; assay: Murine asthma model (ovalbumin sensitized mice); assay type: in vivo, mouse; settings: 3 mg/kg oral
Description: Airway inflammation and hyper-responsiveness (AHR) are hallmarks and distinguishing features of bronchial asthma. Provocation of pre-sensitized mice with the same allergen induces airway inflammation with preferential eosinophilic infiltration and, as a consequence, AHR. Pulmonary eosinophilia and airway remodelling in conjunction with altered neural control of airway tone and airway epithelial desquamation may contribute to AHR in asthma. After the quarantine period, based on their body weights, mice were randomized and divided into four groups (n=7). Tails were marked with an indelible marking pen for identification. On day 0, weights were recorded and animals were sensitized with 100 μg of Ovalbumin and 10 mg of alum solution (0.2 mL) intraperitoneally. On day 7 and day 14, the above sensitization protocol was repeated. […] On day 24, 25, and 26, after the treatment with test compound by oral gavage, 30 mins later animals were exposed to 10% w/v Ovalbumin challenge. […] Forty eight hours after last OVA challenge, airway hyperresponsiveness was measured by whole body plethysmograph against cumulative doses of methacholine challenge (2.5, 10, 50 and 100 mg/ml), after measuring the airway response, blood samples and BAL fluid was collected. Samples were analysed for total cell count by using neubuear chamber under microscope and differential leukocyte count was done manually.

T1 sequence (P42338 whole entry, canonical isoform): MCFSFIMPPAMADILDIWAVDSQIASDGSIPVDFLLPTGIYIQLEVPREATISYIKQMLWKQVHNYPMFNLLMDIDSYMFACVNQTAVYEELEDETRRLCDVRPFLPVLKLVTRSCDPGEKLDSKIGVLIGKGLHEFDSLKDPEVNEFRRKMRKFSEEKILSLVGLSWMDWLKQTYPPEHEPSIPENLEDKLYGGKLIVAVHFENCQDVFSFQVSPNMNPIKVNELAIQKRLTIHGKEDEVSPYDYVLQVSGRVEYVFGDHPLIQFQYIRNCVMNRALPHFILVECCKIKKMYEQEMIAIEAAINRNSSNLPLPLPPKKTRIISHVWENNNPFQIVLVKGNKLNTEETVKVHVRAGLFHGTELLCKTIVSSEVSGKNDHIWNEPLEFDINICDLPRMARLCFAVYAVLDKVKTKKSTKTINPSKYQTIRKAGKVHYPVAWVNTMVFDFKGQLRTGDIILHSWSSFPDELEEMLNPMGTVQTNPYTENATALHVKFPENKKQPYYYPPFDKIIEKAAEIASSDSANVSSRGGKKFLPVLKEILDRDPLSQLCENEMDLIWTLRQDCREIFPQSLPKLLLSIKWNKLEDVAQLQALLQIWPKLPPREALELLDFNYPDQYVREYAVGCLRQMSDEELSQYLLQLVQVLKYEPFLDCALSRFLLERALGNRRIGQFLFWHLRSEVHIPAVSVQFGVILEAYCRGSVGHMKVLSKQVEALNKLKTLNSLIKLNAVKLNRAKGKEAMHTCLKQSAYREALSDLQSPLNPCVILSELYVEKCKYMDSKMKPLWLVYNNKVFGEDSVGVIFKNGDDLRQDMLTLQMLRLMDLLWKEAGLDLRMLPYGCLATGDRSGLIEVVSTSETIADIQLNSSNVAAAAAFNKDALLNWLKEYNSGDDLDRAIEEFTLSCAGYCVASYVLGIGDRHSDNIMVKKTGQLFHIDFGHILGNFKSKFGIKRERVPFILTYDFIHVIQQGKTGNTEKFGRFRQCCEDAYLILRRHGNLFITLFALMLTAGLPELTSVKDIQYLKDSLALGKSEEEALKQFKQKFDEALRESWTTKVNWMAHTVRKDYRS
T1 sequence (P27986 whole entry partner, canonical isoform): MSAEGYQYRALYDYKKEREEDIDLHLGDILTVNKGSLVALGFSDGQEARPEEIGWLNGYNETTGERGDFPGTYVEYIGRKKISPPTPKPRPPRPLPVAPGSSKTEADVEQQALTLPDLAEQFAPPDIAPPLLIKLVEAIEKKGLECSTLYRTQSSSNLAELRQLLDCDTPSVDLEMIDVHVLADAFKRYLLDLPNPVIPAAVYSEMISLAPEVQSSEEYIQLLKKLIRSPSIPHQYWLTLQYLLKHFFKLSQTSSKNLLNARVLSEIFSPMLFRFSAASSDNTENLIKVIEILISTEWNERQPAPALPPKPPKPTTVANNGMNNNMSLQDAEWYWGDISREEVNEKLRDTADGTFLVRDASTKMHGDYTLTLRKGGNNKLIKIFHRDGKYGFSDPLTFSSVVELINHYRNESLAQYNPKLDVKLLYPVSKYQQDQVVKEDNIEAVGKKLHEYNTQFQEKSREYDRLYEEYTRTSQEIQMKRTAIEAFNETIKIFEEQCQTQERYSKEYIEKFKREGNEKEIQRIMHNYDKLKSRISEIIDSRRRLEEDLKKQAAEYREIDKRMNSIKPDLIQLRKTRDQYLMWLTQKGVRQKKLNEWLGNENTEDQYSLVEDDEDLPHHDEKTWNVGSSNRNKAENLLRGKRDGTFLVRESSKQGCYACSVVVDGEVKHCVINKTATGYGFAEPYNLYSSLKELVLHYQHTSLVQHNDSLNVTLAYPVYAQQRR
T2 sequence (O00329 whole entry): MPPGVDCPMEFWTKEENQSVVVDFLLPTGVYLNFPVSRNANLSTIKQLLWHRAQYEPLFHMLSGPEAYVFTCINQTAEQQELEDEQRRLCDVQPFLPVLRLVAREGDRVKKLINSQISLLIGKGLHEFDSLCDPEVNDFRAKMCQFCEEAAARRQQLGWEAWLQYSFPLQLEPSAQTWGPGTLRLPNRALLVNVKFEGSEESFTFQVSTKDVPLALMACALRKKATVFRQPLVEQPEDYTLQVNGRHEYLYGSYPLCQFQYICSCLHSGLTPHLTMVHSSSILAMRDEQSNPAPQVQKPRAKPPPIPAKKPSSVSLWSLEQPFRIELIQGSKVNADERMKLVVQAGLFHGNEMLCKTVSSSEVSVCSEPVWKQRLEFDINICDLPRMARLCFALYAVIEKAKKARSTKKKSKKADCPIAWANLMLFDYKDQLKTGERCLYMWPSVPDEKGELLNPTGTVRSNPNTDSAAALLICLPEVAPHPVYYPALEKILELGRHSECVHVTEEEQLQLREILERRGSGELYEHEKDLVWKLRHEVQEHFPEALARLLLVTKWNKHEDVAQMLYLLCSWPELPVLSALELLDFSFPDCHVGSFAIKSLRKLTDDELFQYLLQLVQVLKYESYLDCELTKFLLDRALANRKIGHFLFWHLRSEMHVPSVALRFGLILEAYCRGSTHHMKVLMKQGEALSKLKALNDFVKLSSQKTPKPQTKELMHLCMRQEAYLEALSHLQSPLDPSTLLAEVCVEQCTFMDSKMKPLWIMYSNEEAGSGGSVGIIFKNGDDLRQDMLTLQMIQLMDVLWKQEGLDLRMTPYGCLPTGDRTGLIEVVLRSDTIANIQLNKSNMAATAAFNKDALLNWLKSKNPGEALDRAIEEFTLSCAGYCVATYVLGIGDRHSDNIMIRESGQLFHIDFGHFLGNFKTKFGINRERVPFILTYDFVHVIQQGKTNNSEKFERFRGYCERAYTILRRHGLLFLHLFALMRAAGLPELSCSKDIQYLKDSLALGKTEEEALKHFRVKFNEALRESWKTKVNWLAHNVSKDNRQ
T2 sequence (P27986 whole entry partner): as the sequence (P27986 whole entry partner, canonical isoform) above

CC[C@H](Nc1ncnc2[nH]cnc12)c1oc2ccccc2c(=O)c1-c1cccc(F)c1 [Compound A1, (S)-2-(1-(9H-purin-6-ylamino)propyl)-3-(3-fluorophenyl)-4H-chromen-4-one]
IC50 [1]: > 4000 nM
EC50 [2]: 0.5 to 2 µM
IC50 [3]: 0.0381 µM
percent inhibition of plasma TNFα ([4]; 1 mg/kg po): 5%
percent inhibition of plasma TNFα ([4]; 3 mg/kg po): 15%
percent inhibition of plasma TNFα ([4]; 10 mg/kg po): 40%
airway hyperresponsiveness against methacholine challenge [5]: significant reduction
eosinophil infiltration into the bronchoalveolar lavage fluid [5]: significant inhibition
